Usually IC50 stands for the concentration that inhibits the measured activity by half. As usually defined, the inhibition is the percentage by which the read-out fell short of the control.

One assay relates to HCT-116 cell line. Description: Inhibition of cell growth, tetrazolium salt (MTT) assay. Format: cell-based. To be noted: HCT116 cells; compound at 250 nM. As for the experimental part:
Inhibition of Cell Growth: Assessment of Cytotoxicity:
Inhibition of cell growth was measured using the tetrazolium salt assay, which is based on the ability of viable cells to reduce 3-(4,5-dimethylthiazol-2-yl)-2,5-[2H]-diphenyltetrazolium bromide (MTT) to formazan (Mossman, Journal of Immunological Methods, vol. 65 (1983), pp. 55-58). The water-insoluble purple formazan product was then detected spectrophotometrically. The HCT-116 cell line was used as a representative cancer cell line and grown in 96-well plates. Cells were plated in McCoy's 5A Medium at a volume of 135 μl/well. Plates were incubated for four hours before addition of inhibitor compounds. Different concentrations of inhibitor compounds were added in 0.5% (v/v) dimethylsulfoxide (15 μLuwell), and cells were incubated at 37° C. (5% CO2) for three to five days. At the end of the incubation, MTT was added to a final concentration of 0.2 mg/mL, and cells were incubated for 4 hours more at 37° C. After centrifugation of the plates and removal of medium, the absorbance of the formazan (solubilized in dimethylsulfoxide) was measured at 540 nm. […] All results were compared to control cells treated only with 0.5% (v/v) dimethylsulfoxide.
In the case of `CC1CCCN1CCS(=O)(=O)N1CCC(Nc2nc(N)c(C(=O)c3c(F)cccc3F)s2)CC1` (racemic) [Example S40], the “% Inhibition HCT116 @ 250 nM” value is reported as 93%.

The same assay, now with this note: HCT116 cells; compound at 250 nM; 0.25 µM.
As to `N#CCNCCS(=O)(=O)N1CCC(Nc2nc(N)c(C(=O)c3c(F)cccc3F)s2)CC1` [Example S160], the “% Inhibition HCT116 @ 250 nM” value is recorded as 30%.

Still in this assay, the particulars now being: Homo sapiens, HCT-116, 120 h, first HCT-116 column (c4); MTT, three to five days; read-out: HCT-116 IC50.
On to `Nc1nc(NC2CCN(S(=O)(=O)CCN(Cc3ccccc3)CC3CC3)CC2)sc1C(=O)c1c(F)cccc1F` [Example K53, (4-Amino-2-{1-[2-(benzyl-cyclopropylmethyl-amino)-ethanesulfonyl]-piperidin-4-ylamino}-thiazol-5-yl)-(2,6-difluoro-phenyl)-methanone], for which the IC50 was found to be 230 nM.

On to `C[C@H](NCCS(=O)(=O)N1CCC(Nc2nc(N)c(C(=O)c3c(F)cccc3F)s2)CC1)c1ccccc1` [Example K47], for which the half-maximal inhibitory concentration (IC50) is 100 nM.

Still in this assay, the particulars now being: Homo sapiens, HCT-116, 120 h, second HCT-116 column (c5); MTT, three to five days; read-out: HCT-116 IC50.
On to `Nc1nc(NC2CCN(S(=O)(=O)CCN(Cc3ccccc3)CC3CC3)CC2)sc1C(=O)c1c(F)cccc1F` [Example K53, (4-Amino-2-{1-[2-(benzyl-cyclopropylmethyl-amino)-ethanesulfonyl]-piperidin-4-ylamino}-thiazol-5-yl)-(2,6-difluoro-phenyl)-methanone], for which the half-maximal inhibitory concentration (IC50) came to 560 nM.

As for `C[C@H](NCCS(=O)(=O)N1CCC(Nc2nc(N)c(C(=O)c3c(F)cccc3F)s2)CC1)c1ccccc1` [Example K47], the IC50 was determined as 250 nM.

Staying with this assay, now noted: Homo sapiens, HCT-116, HCT116 cells; compound at 250 nM; read-out: % Inhibition HCT116 @ 250 nM.
Take `CC(NCCS(=O)(=O)N1CCC(Nc2nc(N)c(C(=O)c3c(F)cccc3F)s2)CC1)c1ccc(F)cc1` (stereo not drawn) [Example S144]: the inhibition at 0.25 µM was 43%.

Take `Nc1nc(NC2CCN(S(=O)(=O)CCNCC(F)(F)F)CC2)sc1C(=O)c1c(F)cccc1F` [Example S106]: the inhibition at 0.25 µM is 98%.

Turning to `Nc1nc(NC2CCN(S(=O)(=O)CCNCCNc3ccccc3)CC2)sc1C(=O)c1c(F)cccc1F` [Example S112], the inhibition at 0.25 µM is 15%.

Take `Nc1nc(NC2CCN(S(=O)(=O)CCNCCCN3CCCC3=O)CC2)sc1C(=O)c1c(F)cccc1F` [Example S71]: the inhibition at 0.25 µM is 23%.

Consider `Nc1nc(NC2CCN(S(=O)(=O)CCN(CCO)CCO)CC2)sc1C(=O)c1c(F)cccc1F` [Example S6], for which the inhibition at 0.25 µM amounted to 13%.

In the case of `CC(C)CCNCCS(=O)(=O)N1CCC(Nc2nc(N)c(C(=O)c3c(F)cccc3F)s2)CC1` [Example S122], the inhibition at 0.25 µM came out at 54%.

Turning to `Nc1nc(NC2CCN(S(=O)(=O)CCNCC3CCCO3)CC2)sc1C(=O)c1c(F)cccc1F` (stereo not drawn) [Example S77], the inhibition at 0.25 µM was determined as 9%.

For the compound `Nc1nc(NC2CCN(S(=O)(=O)CCN[C@@H](CO)c3ccccc3)CC2)sc1C(=O)c1c(F)cccc1F` [Example S79], the inhibition at 0.25 µM was found to be 14%.

In the case of `CN(CCc1ccccc1)CCS(=O)(=O)N1CCC(Nc2nc(N)c(C(=O)c3c(F)cccc3F)s2)CC1` [Example S29], the inhibition at 0.25 µM turned out to be 18%.

Take `NC(=O)[C@@H]1CCCN1CCS(=O)(=O)N1CCC(Nc2nc(N)c(C(=O)c3c(F)cccc3F)s2)CC1` [Example S20]: the inhibition at 0.25 µM stood at 18%.

With `Nc1nc(NC2CCN(S(=O)(=O)CCNCCN3CCCCC3)CC2)sc1C(=O)c1c(F)cccc1F` [Example S82], the inhibition at 0.25 µM came to 15%.

For `CC(C)(C)N(CCO)CCS(=O)(=O)N1CCC(Nc2nc(N)c(C(=O)c3c(F)cccc3F)s2)CC1` [Example S3], the inhibition at 0.25 µM was found to be 25%.

Regarding `CCCN(CCS(=O)(=O)N1CCC(Nc2nc(N)c(C(=O)c3c(F)cccc3F)s2)CC1)CC1CC1` [Example S1], the inhibition at 0.25 µM stood at 36%.

Turning to `Nc1nc(NC2CCN(S(=O)(=O)CCNCCOc3ccccc3)CC2)sc1C(=O)c1c(F)cccc1F` [Example S149], the inhibition at 0.25 µM was determined as 36%.

For `Nc1nc(NC2CCN(S(=O)(=O)CCNCc3cc(F)cc(F)c3)CC2)sc1C(=O)c1c(F)cccc1F` [Example S154], the inhibition at 0.25 µM amounted to 31%.

On to `CCN(CCS(=O)(=O)N1CCC(Nc2nc(N)c(C(=O)c3c(F)cccc3F)s2)CC1)Cc1ccncc1` [Example S45], for which the inhibition at 0.25 µM was determined as 13%.

For the compound `CC(C)(NCCS(=O)(=O)N1CCC(Nc2nc(N)c(C(=O)c3c(F)cccc3F)s2)CC1)c1ccccc1` [Example S173], the inhibition at 0.25 µM stood at 35%.

For `Nc1nc(NC2CCN(S(=O)(=O)CCNCc3ccccn3)CC2)sc1C(=O)c1c(F)cccc1F` [Example S86], the inhibition at 0.25 µM worked out at 11%.

For `CCCCN(CCC#N)CCS(=O)(=O)N1CCC(Nc2nc(N)c(C(=O)c3c(F)cccc3F)s2)CC1` [Example S37], the inhibition at 0.25 µM was 24%.

Consider `CCCC(C)NCCS(=O)(=O)N1CCC(Nc2nc(N)c(C(=O)c3c(F)cccc3F)s2)CC1` (stereo not drawn) [Example S93], for which the inhibition at 0.25 µM came out at 33%.

For `Nc1nc(NC2CCN(S(=O)(=O)CCNC3CC3)CC2)sc1C(=O)c1c(F)cccc1F` [Example S60], the inhibition at 0.25 µM is 72%.

In the case of `COCC(C)NCCS(=O)(=O)N1CCC(Nc2nc(N)c(C(=O)c3c(F)cccc3F)s2)CC1` (stereo not drawn) [Example S89], the inhibition at 0.25 µM was determined as 17%.

For `CC(C)OCCCNCCS(=O)(=O)N1CCC(Nc2nc(N)c(C(=O)c3c(F)cccc3F)s2)CC1` [Example S123], the inhibition at 0.25 µM turned out to be 15%.

On to `Nc1nc(NC2CCN(S(=O)(=O)CCNCc3ccncc3)CC2)sc1C(=O)c1c(F)cccc1F` [Example S83], for which the inhibition at 0.25 µM stood at 6%.

In the case of `Nc1nc(NC2CCN(S(=O)(=O)CCNCC(=O)NO)CC2)sc1C(=O)c1c(F)cccc1F` [Example S168], the inhibition at 0.25 µM worked out at 16%.

In the case of `CC(C)c1ccc(CNCCS(=O)(=O)N2CCC(Nc3nc(N)c(C(=O)c4c(F)cccc4F)s3)CC2)cc1` [Example S138], the inhibition at 0.25 µM came to 22%.

For the compound `Nc1nc(NC2CCN(S(=O)(=O)CCNC3CCC3)CC2)sc1C(=O)c1c(F)cccc1F` [Example S59], the inhibition at 0.25 µM is 40%.

Take `NC(=O)C1CCCN(CCS(=O)(=O)N2CCC(Nc3nc(N)c(C(=O)c4c(F)cccc4F)s3)CC2)C1` (stereo not drawn) [Example S12]: the inhibition at 0.25 µM came out at 19%.

`CCC(NCCS(=O)(=O)N1CCC(Nc2nc(N)c(C(=O)c3c(F)cccc3F)s2)CC1)c1ccccc1` (stereo not drawn) [Example S141]: the inhibition at 0.25 µM was determined as 78%.

On to `Nc1nc(NC2CCN(S(=O)(=O)CCNCc3cccs3)CC2)sc1C(=O)c1c(F)cccc1F` [Example S88], for which the inhibition at 0.25 µM stood at 28%.

As for `CC1CCCC(C)N1CCS(=O)(=O)N1CCC(Nc2nc(N)c(C(=O)c3c(F)cccc3F)s2)CC1` (stereo not drawn) [Example S14], the inhibition at 0.25 µM worked out at 91%.

For `Nc1nc(NC2CCN(S(=O)(=O)CCNCc3ccc4c(c3)CCO4)CC2)sc1C(=O)c1c(F)cccc1F` [Example S169], the inhibition at 0.25 µM came to 17%.

Regarding `Nc1nc(NC2CCN(S(=O)(=O)CCN[C@H]3CCOC3=O)CC2)sc1C(=O)c1c(F)cccc1F` [Example S153], the inhibition at 0.25 µM was 100%.

As to `Nc1nc(NC2CCN(S(=O)(=O)CCNCCc3ccccc3)CC2)sc1C(=O)c1c(F)cccc1F` [Example S116], the inhibition at 0.25 µM turned out to be 60%.

In the case of `C=CCN(CC=C)CCS(=O)(=O)N1CCC(Nc2nc(N)c(C(=O)c3c(F)cccc3F)s2)CC1` [Example S32], the inhibition at 0.25 µM stood at 69%.

For `CC1CN(CCS(=O)(=O)N2CCC(Nc3nc(N)c(C(=O)c4c(F)cccc4F)s3)CC2)CC(C)O1` (stereo not drawn) [Example S16], the inhibition at 0.25 µM turned out to be 20%.

On to `Nc1nc(NC2CCN(S(=O)(=O)CCN3CCc4ccccc4C3)CC2)sc1C(=O)c1c(F)cccc1F` [Example S27], for which the inhibition at 0.25 µM came out at 27%.

In the case of `Cc1ccccc1CNCCS(=O)(=O)N1CCC(Nc2nc(N)c(C(=O)c3c(F)cccc3F)s2)CC1` [Example S98], the inhibition at 0.25 µM stood at 49%.

As for `Nc1nc(NC2CCN(S(=O)(=O)CCN3CCC[C@H]3CO)CC2)sc1C(=O)c1c(F)cccc1F` [Example S19], the inhibition at 0.25 µM was determined as 15%.

Consider `Nc1nc(NC2CCN(S(=O)(=O)CCNCc3cccc(F)c3F)CC2)sc1C(=O)c1c(F)cccc1F` [Example S158], for which the inhibition at 0.25 µM turned out to be 73%.

Take `Nc1nc(NC2CCN(S(=O)(=O)CCNCc3cccc(F)c3)CC2)sc1C(=O)c1c(F)cccc1F` [Example S99]: the inhibition at 0.25 µM came out at 43%.

Regarding `Cc1ccc(CNCCS(=O)(=O)N2CCC(Nc3nc(N)c(C(=O)c4c(F)cccc4F)s3)CC2)o1` [Example S164], the inhibition at 0.25 µM came to 28%.

As to `Cc1cnc(CNCCS(=O)(=O)N2CCC(Nc3nc(N)c(C(=O)c4c(F)cccc4F)s3)CC2)cn1` [Example S171], the inhibition at 0.25 µM was 18%.

As to `Nc1nc(NC2CCN(S(=O)(=O)CCN3CCN(C=O)CC3)CC2)sc1C(=O)c1c(F)cccc1F` [Example S17], the inhibition at 0.25 µM was found to be 19%.

On to `CC(C)(C)CCNCCS(=O)(=O)N1CCC(Nc2nc(N)c(C(=O)c3c(F)cccc3F)s2)CC1` [Example S121], for which the inhibition at 0.25 µM was determined as 20%.

In the case of `CC(C)(C)CNCCS(=O)(=O)N1CCC(Nc2nc(N)c(C(=O)c3c(F)cccc3F)s2)CC1` [Example S107], the inhibition at 0.25 µM was 98%.

In the case of `CCN(CCS(=O)(=O)N1CCC(Nc2nc(N)c(C(=O)c3c(F)cccc3F)s2)CC1)C1CCCCC1` [Example S10], the inhibition at 0.25 µM was determined as 62%.

Turning to `C=CCN(C)CCS(=O)(=O)N1CCC(Nc2nc(N)c(C(=O)c3c(F)cccc3F)s2)CC1` [Example S31], the inhibition at 0.25 µM came out at 27%.

For the compound `COC(=O)CN(C)CCS(=O)(=O)N1CCC(Nc2nc(N)c(C(=O)c3c(F)cccc3F)s2)CC1` [Example S49], the inhibition at 0.25 µM worked out at 33%.

For the compound `CC(C)C(NCCS(=O)(=O)N1CCC(Nc2nc(N)c(C(=O)c3c(F)cccc3F)s2)CC1)C(C)C` [Example S135], the inhibition at 0.25 µM stood at 100%.

With `Nc1nc(NC2CCN(S(=O)(=O)CCNC3CCCc4ccccc43)CC2)sc1C(=O)c1c(F)cccc1F` (stereo not drawn) [Example S68], the inhibition at 0.25 µM is 21%.

For the origin of these results see US20050101595A1, “N-containing cycloalkyl-substituted amino-thiazole derivatives and pharmaceutical compositions for inhibiting cell proliferation and methods for their use” (PFIZER INC., priority 2003, published 2005).
